This note sets out measurements from patent publication US6794148B2, “High speed, automated, continuous flow, multi-dimensional molecular selection and analysis” (PerSeptive Biosystems, Inc., priority 1995, dated 2004).

Assay [1] deals with T1, HSA (Homo sapiens, UniProt P02768).
T1 construct: purchased Sigma Chemical Co (St. Louis, Mo.)
The assay can be described thus: HSA binding to heme peptide POROS. To be noted: only under very hydrophobic conditions (200 mM sodium sulphate, pH 7 buffer).

Assay [2] relates to IgG. The assay can be described thus: IgG purification from human serum on POROS-immobilized peptide column. The class given is binding. To be noted: for IgG binding capacity of POROS-peptide column: peptide immobilized on POROS AL via N-terminal end. The protocol:
1 g POROS™ AL (aldehyde) was suspended in 10 mM PBS (pH 7.5) containing 100 mg sodium cyanoborohydride (NaCNBH3). 5 to 20 mg of each of the peptides selected by various screening procedures was added to the resin and the mixture was shaken overnight at room temperature. 100 mg sodium borohydride (NaBH4) was then added and the mixture was shaken for another 2 hrs. The beads were then washed with PBS and packed into 4.6 mm D×100 mm L column using POROS™ Self Pack® device.
100 μl of 1:10 diluted serum was injected onto the peptide column which was equilibrated with 20 mM tris (pH 8.0) at 5 ml/min. The bound proteins were eluted with 0-1 M NaCl gradient in 15 CVs. Fractions were collected manually and concentrated by Speed Vac for subsequent analysis by SDS-polyacrylamide gel electrophoresis.
The […] (SEQ ID NO: 8) peptide with heme group was immobilized on POROS™AL® (aldehyde) via the N-terminal end. This POROS™-peptide conjugate was used to separate IgG from serum at pH 8 under a 0-1 M NaCl gradient. […] To determine the nature of interaction, the purification profile of IgG separated on the POROS™-peptide column was compared with the IgG purified on standard ion exchange columns such as POROS™-CM and POROS™ HQ. […] The effect of the varying loading densities of peptide (from 10 mg/g POROS™ to 100 mg/g POROS™) on specificity and capacity for IgG binding was also investigated. The specificity of the peptide for IgG binding was also investigated. […] At low loading density (10 mg/g POROS™) IgG bound primarily via ionic interaction requiring elution of bound IgG with salt gradient. At higher loading density ([…]) IgG bound strongly and eluted with acid buffer. The binding capacity varied from 1-2 mg/ml column volume at lower ligand density to 30 mg/ml column volume at higher ligand densities.
A simplified analog of the heme peptide ([…]) (SEQ ID NO: 9) was synthesized and immobilized on POROS™ AL via the N-terminal end. […] The bound IgG was eluted from the GAQGHTVBK (SEQ ID NO: 9)-POROS™ column with 100 mM NaCl. The IgG binding capacity was determined to be 5 mg/ml column volume. Loading densities from 20 mg/g to 40 mg peptide /g POROS™ were evaluated. At these ligand densities, the specificity of IgG binding was not affected, but the capacity was reduced.

Assay [3] deals with IgG. The assay is described as above. In kind it is binding. To be noted: immobilized via carboxyl groups of heme and free C-terminal end.
The subject of assay [4] is mouse IgG (whole fragment). The assay can be described thus: Solution phase and solid phase peptide screening of natural peptide library. In kind it is binding. The protocol:
(§1) 5 mg each of either mouse IgG (whole) or the Fc fragment was incubated with 20 mg of natural library and protein A and G digests, respectively. The mixture was dissolved in 1 ml of a mixture of 25 mM sodium phosphate buffer and 0.15 M NaCl (pH 7) overnight at 4° C. After incubation, several chromatographic runs through the Superdex SEC and RP columns were conducted with 200 of the protein and peptide mixture injected through the Superdex column during each run. The flow rate for the Superdex column was 0.75 m/min with the 25 mM sodium phosphate buffer and 0.15 M NaCl (pH 7) mixture. The early eluting protein peak was collected directly onto the RP column. The remaining portion of the peak was washed off the SEC. The mouse IgG (whole) or Fc fragment and its associated peptides were then eluted from the RP column under the following conditions:
(§2) The IgG activated POROS™ was packed into 4.6 mm D×100 mm L PEEK columns using Self Pack® assembly on BioCAD™ at 20 ml/min flow rate. 5 to 50 mgs peptide library (natural peptide library or polyclonal antibody digest) dissolved in 0.5 to 2.5 ml of 10 mM PBS (pH 7.5) was injected onto the column at flow rate of 0.5 ml/min. After wash with 5 CVs of PBS, the bound portion was eluted with 10 mM HCl and collected manually. […] The fractions corresponding to the bound peptides were concentrated in Speed Vac and analyzed by MALDI-TOF and Edman sequencing. […]

Assay [5] relates to IgG. The assay can be described thus: Solid phase screening of polyclonal antibody digests on immobilized IgG column. In kind it is binding. To be noted: tryptic digests of anti-IgG (Fc specific) polyclonal antibodies. Here is the method: […] POROS™ EP (epoxy) was suspended in 5 ml 0.1 M phosphate buffer (pH 9) containing 20 mg IgG. After the beads were well suspended, 4 ml 0.1 M phosphate buffer (pH 9) containing 2 M NA2SO4 were added to the mixture and it was shaken overnight at room temperature. The beads were then washed with 10 mM PBS (pH 7.5) and stored in the refrigerator before they were packed into columns.
as §2, with “manually. The fraction was concentrated down to approximately 500 μl and at least 80% of it was injected onto a 4.6 mm D×250 mm L Vydac C18 column at 1 m/min. The RP column was equilibrated with 0.1% TFA/DIW and peptides were eluted with 15 CVs of a 0-40% acetonitrile gradient at flow rate of 1 ml/min.” for “manually.”
Polyclonal antibodies are an interesting and logical source of peptides since they have specific antigen binding sites. […] The amino acid sequence was determined to be […] […]

The target in assay [6] is Concanavalin A (Con A) (Canavalia ensiformis, UniProt P02866). The source says:
(§3) The lectin Concanavalin A (Con A) has been used. Ligands were screened for specific binding to the sugar site of Con A as an example of the bimolecular approach to screening a mixture of components for interaction with a target. Biotinylated succinyl Con A was immobilized onto a streptavidin POROS™ support (BA cartridge, 2.1×30 mm). […] After exposing the column to 10 CVs of CAB buffer (0.2 m/min.), the remaining peptides were acid eluted onto a RP column. These peptides were eluted from a RP HPLC column using an acetonitrile gradient and the fractions were collected, pooled and sequenced. Recovery of each amino acid was expressed as a percentage of the total amount of amino acids recovered at each cycle of sequencing (AA %). Amino acid enrichment was then expressed for each amino acid as follows: [formula]

For assay [7], the system named is Concanavalin A (Con A).
From the text: as §3

For assay [8], the system named is IgG. Put plainly: Immunoglobulin class and species selectivity of POROS 19-mer peptide column. The class given is binding. The protocol:
(§4) The 19-mer peptide ([…]) (SEQ ID NO: 7) selected from protein A and G digests was directly synthesized on 20 μm amine-functionalized™ particles by standard FMOC chemistry. About 700 mg of resin was dry packed into a 4.6 mm D×50 mm L PEEK column equipped with 2 μm frits. The packed column was attached with appropriate adapters to a PerSeptive Biosystems 9050 plus continuous flow peptide synthesizer. Upon completion of synthesis, the resin was dried and deprotected using 95% TFA/5% triisopropylsilane for 24 hrs. The final peptide-support conjugate was packed using POROS™ Self Pack® column packing device at flow rate 10 ml/min onto 4.6 mm D×50 mm L column for evaluation as affinity supports.
(§5) The 19-mer peptide column (4.6 mm D×50 mm L) was equilibrated with 20 CVs of equilibration buffer, 20 mM tris (pH 7). About 500 μl of 1 mg/ml of each of the following samples was injected onto the 19-mer peptide column (4.6 mm D×50 mm L): 1) pure IgGs from either human or mouse or chicken, 2) IgA (whole molecule), 3) human serum, 4) fetal bovine serum (1:10 dilution), or 5) 500 μl of 1 mg/ml mouse […]. After injection, the column was washed with 20 CVs of a mixture of 20 mM tris buffer and 0.4 M NaCl (pH 7). The remaining bound proteins were eluted with 20 CVs of 12 mM HCl. […] The bound fractions were collected and analyzed by SDS-Polyacrylamide gel electrophoresis.

In assay [9] the test system is mouse IgG, Fc fragment. The assay can be described thus: Binding of mouse IgG Fc fragment on POROS 19-mer peptide column. To be noted: peptide synthesized directly on POROS NH2 resin via C-terminal end; eluted with acid buffer. The protocol:
as §4, §5

The subject of assay [10] is mouse IgG (Fc fragment). The assay can be described thus: Solution phase peptide screening (SEC - reversed phase) of protein A and G digests. In kind it is binding. To be noted: native and denatured recombinant protein A and G digests. The protocol:
as §1
Fractions corresponding to bound peptide peaks were lyophilized and redissolved in 1001 of 0.1% TFA/DIW for mass spec analysis by MALDI-TOF.

No end group written: not given here.

On to “CAQCHTVEK (cysteine pairing not given here; also: heme group) [tryptic digest peptide of cytochrome c with heme group, immobilized on POROS AL]”, for which, in assay [1], the “binding to HSA” value is given as “bound very weakly”. For the same substance, the “selectivity for IgG from serum versus ion exchange columns” value in assay [2] (compared with POROS-CM and POROS HQ, similar conditions) is listed as “higher selectivity for IgG from serum than either of the ion exchange columns”. Further, in [2] (higher loading density (100 mg/mg)), the “IgG binding capacity at higher ligand densities” value is recorded as 30 mg/ml column volume. In assay [2] (low loading density (10 mg/g POROS)), the “IgG binding capacity at lower ligand density” value was 1-2 mg/ml column volume. Also, the “purity of IgG purified from serum” value in assay [2] (pH 8, 0-1 M NaCl gradient, versus POROS-Protein A) is given as “comparable purity to that of IgG separated on POROS™-Protein A column”. In addition, the “IgG binding capacity of POROS-peptide column” value in assay [2] (pH 8) is 10 mg/ml column volume. Further, the “IgG binding when immobilized via carboxyl groups” value in assay [3] is on record as “no IgG binding”. In addition, in assay [4], the “selected as binder in library screening” value is given as “yielded one peptide”.
Regarding “GAQGHTVEK (OTHER INFORMATION: Description of Artificial Sequence: synthetic peptide) [simplified analog of the heme peptide; also isolated from polyclonal antibody digests]”, the “selectivity of peptide isolated from denatured antibody digest” value in [5] was “selective for IgG”. In assay [2] (pH 8, immobilized on POROS via N-terminal end), the “specificity of IgG binding from human serum” value is “bound specifically”. The “IgG binding capacity of POROS-peptide column” value in [2] (pH 8) turned out to be 5 mg/ml column volume.
Regarding HHRSY, in assay [6] (high concentration of competing sugar ligand), the “displacement by competing sugar ligand” value is on record as “displaced somewhat”. The “binding to Con A immobilized on the column” value in assay [6] (synthesized peptide) is reported as “capable of binding specifically to Con A”. In addition, the “binding to control column” value in assay [7] is given as “little binding to the control column”.
In the case of “TVTEKPEVIDASELTPAVT (also: synthesized on POROS) [19-mer peptide selected from protein A and G digests, synthesized on POROS]”, in [8] (POROS 19-mer peptide column), the “selectivity IgG versus IgA” value is recorded as “more selective for IgG than IgA”. For the same substance, the “species selectivity of IgG binding” value in [8] (human versus rabbit, goat or mouse IgG) was “Human IgG bound more selectively”. Also, in assay [9], the “binding of mouse IgG Fc fragment (capacity and selectivity)” value is given as “low capacity but high selectivity”. Besides, the “selected as binder in solution phase screening” value in assay [10] is given as “identified”.
